Ends that are not written are not given here.
Legend:
H2O2-induced HUVECs [1] = assay: MDA content in H2O2-induced HUVECs (assay kit); type: cell-based, human; conditions: 200 μM pretreatment, 300 μM H2O2, model 27.94 ± 1.06, mean ± SD, n = 3
Description: (§1) The HUVECs were cultured for 24 h in a 96-well plate. Subsequently, the supernatant was aspirated and 20 μL of GSH (200 μM) and ACEi peptides (100 or 200 μM) were added in the protection groups, respectively. After 24 h, ACEi peptides were removed and H2O2 with the final concentration of 300 μM was added into the damage and protection groups for incubating 24 h.
(§2) The level of ROS was determined using DCFH2-DA assay and expressed as % control ([50]). The levels of SOD (U/mgprot), GSH-Px (U/mgprot), NO (μmol/L), and MDA (nmol/mgprot) were measured using assay kits according to manufacturer’ protocols.

H2O2-induced HUVECs [2] = assay: Apoptosis rate of H2O2-induced HUVECs, Hoechst 33342; type: cell-based, human; conditions: 200 μM pretreatment, 300 μM H2O2, model 214.03 ± 7.11% control, mean ± SD, n = 3
Description: as §1
Cell treatments with ACEi peptides, GSH, and H2O2 were according to the above method ([50]). The morphology of HUVECs was observed and photographed using an inverted microscope (Nikon Corporation, Kyoto, Japan). The percentage of apoptotic HUVECs was analyzed using previous methods ([17], [50]).

H2O2-induced HUVECs [3] = assay: NO production in H2O2-induced HUVECs (assay kit); type: cell-based, human; conditions: 200 μM pretreatment, 300 μM H2O2, model 15.54 ± 0.68 μM, mean ± SD, n = 3
Description: as §1, §2

H2O2-induced HUVECs [4] = assay: Viability of H2O2-induced HUVECs (oxidative damage model); type: cell-based, human
Description: The viability of HUVECs treated by TRP3, TRP6, TRP9, and TRP12 was determined using MTT method. HUVECs were seeded in the 96-well plates, cultured for 24 h, and treated with ACEi peptides (100, 200, and 300 μM) at 37° C for 24 h. MTT (final content of 2 mg/mL) was added into cell culture. After 4 h, DMSO was added into each well and monitored at 490 nm. The cell viability (% control) was calculated.
The oxidative damage model of HUVECs was established according to the previous method ([50]). HUVECs were seeded in the 96-well plates, cultured for 24 h, and treated with […] H2O2 at 37°C.
as §1

HUVECs [5] = assay: NO production in HUVECs (assay kit); type: cell-based, human
Description: (§3) HUVECs were cultured in DMEM supplemented with 100 µg/mL streptomycin, 10% FBS (v/v), and 100 U/mL penicillin at 37°C in a humidified 5% CO2 atmosphere for 24 h.
(§4) After treating with ACEi peptides (TRP3, TRP6, TRP9, or TRP12, respectively) for 24 h, NO and ET-1 contents were separately determined by employing human NO and ET-1 assay kit as per manufactures’ protocol ([18]).

H2O2-induced HUVECs [6] = assay: GSH-Px activity in H2O2-induced HUVECs (assay kit); type: cell-based, human; conditions: 200 μM pretreatment, 300 μM H2O2, model 26.95 ± 1.09, mean ± SD, n = 3
Description: as §1, §2

HUVECs [7] = assay: ET-1 secretion in HUVECs (assay kit); type: cell-based, human
Description: as §3, §4

ACE = target: T1, ACE (Oryctolagus cuniculus, UniProt P12822); assay: ACE inhibitory (ACEi) activity, FAPGG substrate, hippuric acid by HPLC at 228 nm; type: biochemical; conditions: at 1.5 mg/mL, mean ± SD, n = 3
T1 sequence (P12822 34-1310): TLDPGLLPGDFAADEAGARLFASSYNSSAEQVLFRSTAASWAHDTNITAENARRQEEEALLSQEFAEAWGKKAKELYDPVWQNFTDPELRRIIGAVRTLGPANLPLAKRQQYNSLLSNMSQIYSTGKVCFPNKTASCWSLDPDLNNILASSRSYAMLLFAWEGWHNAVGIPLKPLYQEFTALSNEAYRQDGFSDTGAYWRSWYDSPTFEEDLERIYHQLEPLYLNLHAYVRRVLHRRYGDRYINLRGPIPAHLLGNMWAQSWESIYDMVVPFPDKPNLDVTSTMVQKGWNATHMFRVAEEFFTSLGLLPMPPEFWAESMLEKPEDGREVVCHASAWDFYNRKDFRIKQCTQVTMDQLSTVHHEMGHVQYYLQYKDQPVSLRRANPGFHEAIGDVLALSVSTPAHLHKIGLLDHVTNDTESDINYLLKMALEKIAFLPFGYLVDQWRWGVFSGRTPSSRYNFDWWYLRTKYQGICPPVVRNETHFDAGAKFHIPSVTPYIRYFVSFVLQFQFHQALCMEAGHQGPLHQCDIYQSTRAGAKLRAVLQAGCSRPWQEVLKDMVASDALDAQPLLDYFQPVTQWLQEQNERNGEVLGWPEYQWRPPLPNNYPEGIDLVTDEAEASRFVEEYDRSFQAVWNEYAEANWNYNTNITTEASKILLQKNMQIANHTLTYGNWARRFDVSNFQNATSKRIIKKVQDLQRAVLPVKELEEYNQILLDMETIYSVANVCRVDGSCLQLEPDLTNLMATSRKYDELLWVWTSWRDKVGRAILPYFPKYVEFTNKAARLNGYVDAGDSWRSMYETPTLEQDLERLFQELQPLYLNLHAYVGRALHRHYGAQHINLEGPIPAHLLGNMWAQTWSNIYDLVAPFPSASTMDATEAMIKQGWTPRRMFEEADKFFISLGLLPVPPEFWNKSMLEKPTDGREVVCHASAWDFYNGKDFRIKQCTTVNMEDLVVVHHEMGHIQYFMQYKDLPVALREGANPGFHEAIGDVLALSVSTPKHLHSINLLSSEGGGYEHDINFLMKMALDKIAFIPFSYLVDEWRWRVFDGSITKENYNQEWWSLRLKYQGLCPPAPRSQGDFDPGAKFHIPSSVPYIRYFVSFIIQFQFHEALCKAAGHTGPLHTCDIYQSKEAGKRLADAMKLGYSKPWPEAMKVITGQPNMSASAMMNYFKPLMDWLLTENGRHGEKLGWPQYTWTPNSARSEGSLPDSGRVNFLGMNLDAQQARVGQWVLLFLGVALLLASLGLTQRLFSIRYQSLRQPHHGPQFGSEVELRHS
Description: The ACEi activity was measured by employing FAPGG as the substrate with the following modifications reported by Zhao et al. ([18]). In brief, the initial assay volume consisted of 50 μL of the substrate (3 mM), 50 μL of the ACE enzyme solution containing 1.25 mU of declared enzyme activity, and 50 μL of assay sample. All these solutions were incubated for 30 min at 37°C in a water bath first without mixing and then for an additional 30 min after mixing. ACE activity was stopped by 150 μL of glacial acetic acid. After that, the reaction mixture was separated by HPLC at 228 nm to determine the hippuric acid (HA) content produced due to ACE activity on the substrate. The control reaction mixture contained 50 μL of buffer instead of the assay sample and the control was expected to liberate the maximum amount of HA from the substrate due to uninhibited ACE activity. The percent inhibition of ACE activity was calculated as follows:
Inhibition activity(%)=[(HAcontrol−HAsample)/HAcontrol]×100%.
The IC50 value is the concentration of peptide inhibiting 50% activity of ACE.

H2O2-induced HUVECs [8] = assay: ROS level in H2O2-induced HUVECs, DCFH2-DA assay; type: cell-based, human; conditions: 200 μM pretreatment, 300 μM H2O2, model 146.6 ± 3.81%, mean ± SD, n = 3
Description: as §1, §2

[9] = target: T2, angiotensin-I-converting enzyme (ACE) (UniProt P12822)
T2 sequence: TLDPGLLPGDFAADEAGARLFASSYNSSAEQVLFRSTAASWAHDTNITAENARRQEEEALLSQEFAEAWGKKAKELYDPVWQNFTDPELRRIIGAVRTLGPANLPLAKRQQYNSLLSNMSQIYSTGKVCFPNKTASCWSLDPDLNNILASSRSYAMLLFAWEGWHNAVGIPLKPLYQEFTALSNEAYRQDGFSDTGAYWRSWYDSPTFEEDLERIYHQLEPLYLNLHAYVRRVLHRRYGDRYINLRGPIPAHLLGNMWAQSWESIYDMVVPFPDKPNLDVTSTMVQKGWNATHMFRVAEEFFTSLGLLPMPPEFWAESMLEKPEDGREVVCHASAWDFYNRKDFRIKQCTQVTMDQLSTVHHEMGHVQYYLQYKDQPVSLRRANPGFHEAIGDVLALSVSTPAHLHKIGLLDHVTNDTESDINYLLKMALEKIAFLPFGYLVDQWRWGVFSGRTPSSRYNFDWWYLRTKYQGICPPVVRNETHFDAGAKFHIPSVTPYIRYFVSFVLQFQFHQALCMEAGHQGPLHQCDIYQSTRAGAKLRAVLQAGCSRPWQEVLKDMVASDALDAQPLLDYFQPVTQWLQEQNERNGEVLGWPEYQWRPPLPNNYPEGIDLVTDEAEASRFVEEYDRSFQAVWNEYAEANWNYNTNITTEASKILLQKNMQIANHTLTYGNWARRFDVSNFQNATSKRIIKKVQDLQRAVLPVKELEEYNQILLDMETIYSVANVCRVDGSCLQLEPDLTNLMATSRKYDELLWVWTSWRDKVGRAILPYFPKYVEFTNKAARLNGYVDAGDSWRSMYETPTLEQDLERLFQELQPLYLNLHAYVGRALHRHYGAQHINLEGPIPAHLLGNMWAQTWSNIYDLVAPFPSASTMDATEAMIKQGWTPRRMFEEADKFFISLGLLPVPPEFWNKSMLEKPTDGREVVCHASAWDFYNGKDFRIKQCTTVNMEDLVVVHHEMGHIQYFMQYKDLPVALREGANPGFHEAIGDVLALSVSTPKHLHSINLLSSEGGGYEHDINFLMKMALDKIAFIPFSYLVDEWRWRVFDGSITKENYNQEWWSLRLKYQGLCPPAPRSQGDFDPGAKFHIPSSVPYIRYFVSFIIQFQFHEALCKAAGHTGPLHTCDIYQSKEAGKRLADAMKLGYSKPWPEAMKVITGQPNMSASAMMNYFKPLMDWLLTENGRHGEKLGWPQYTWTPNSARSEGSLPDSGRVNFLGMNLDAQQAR

[10] = target: T2, angiotensin-I-converting enzyme (ACE); remark: listed apart in the source

N[C@@H](CCC(=O)N[C@@H](CS)C(=O)NCC(=O)O)C(=O)O [GSH, Glutathione, reference compound]
MDA content (H2O2-induced HUVECs [1]): 17.83 ± 0.87 nmol/mg prot | total apoptosis ratio (H2O2-induced HUVECs [2]): 124.52 ± 4.82 % control | NO content (H2O2-induced HUVECs [3]): 26.98 ± 1.05 µM | cell viability of H2O2-induced HUVECs (H2O2-induced HUVECs [4]; 200 μM pretreatment 24 h, then 300 μM H2O2 24 h, model group 50.31 ± 2.19%, mean ± SD, n = 3, SD): 78.33 ± 3.08%

OO [H2O2]
viability of HUVECs (H2O2-induced HUVECs [4]; H2O2 300 μM alone (model establishment)): 49.65 ± 1.68%

WSPGF [TRP12, Trp-Ser-Pro-Gly-Phe]
MDA content (H2O2-induced HUVECs [1]): 21.08 ± 0.92 nmol/mg prot | total apoptosis ratio (H2O2-induced HUVECs [2]): 162.08 ± 5.94 % control | NO content (H2O2-induced HUVECs [3]): 22.09 ± 0.81 µM | NO content in NE-treated HUVECs (HUVECs [5]; peptide 200 μM plus NE, NE alone 18.59 ± 0.82 μM): 26.79 ± 1.34 µM | NO level in HUVECs (HUVECs [5]; peptide 200 μM, 24 h, control 33.68 ± 0.96 μM, mean ± SD, n = 3, SD): 46.32 ± 2.03 µM | GSH-Px activity (H2O2-induced HUVECs [6]): 39.75 ± 1.63 U/mg prot | ET-1 content in NE-treated HUVECs (HUVECs [7]; peptide 200 μM plus NE, NE alone 73.57 ± 3.09 pg./mL): 54.71 ± 2.57 pg/mL | ET-1 content in HUVECs (HUVECs [7]; peptide 200 μM, control 55.37 ± 2.53 pg./mL, mean ± SD, n = 3, SD): 45.28 ± 1.88 pg/mL | ACEi rate (ACEi activity) (ACE): 78.24 ± 2.81% | ROS level (H2O2-induced HUVECs [8]): 123.7 ± 3.21 % control

B1: TRP9 (YSHM; Tyr-Ser-His-Met) (peptide)
peptide: YSHM
ACEi rate (percent inhibition of ACE activity) of the RP-HPLC isolated peptide at 1.5 mg/mL [9]: 83.5% | ACEi activity (IC50): inhibition of ACE enzyme activity, substrate FAPGG, 37°C, product measured by HPLC at 228 nm [10]: 490 µg/mL

B2: TRP3 (WGESF; Trp-Gly-Glu-Ser-Phe) (peptide)
peptide: WGESF
ACEi rate (percent inhibition of ACE activity) of the RP-HPLC isolated peptide at 1.5 mg/mL [9]: 69.5% | ACEi activity (IC50): inhibition of ACE enzyme activity, substrate FAPGG, 37°C, product measured by HPLC at 228 nm [10]: 930 µg/mL

B3: TRP6 (IKSW; Ile-Lys-Ser-Trp) (peptide)
peptide: IKSW
ACEi rate (percent inhibition of ACE activity) of the RP-HPLC isolated peptide at 1.5 mg/mL [9]: 75.4% | ACEi activity (IC50): inhibition of ACE enzyme activity, substrate FAPGG, 37°C, product measured by HPLC at 228 nm [10]: 790 µg/mL

B4: TRP12 (WSPGF; Trp-Ser-Pro-Gly-Phe) (peptide)
peptide: WSPGF
ACEi rate (percent inhibition of ACE activity) of the RP-HPLC isolated peptide at 1.5 mg/mL [9]: 78.2% | ACEi activity (IC50): inhibition of ACE enzyme activity, substrate FAPGG, 37°C, product measured by HPLC at 228 nm [10]: 670 µg/mL
